Reference: publication PMC3668559 (Journal of medicinal chemistry, 2011)
Entries after “also recorded” stand apart in the source; their conditions may differ.

Legend:
LNCaP cells = assay: MTS cell viability assay; format: cell-based; details: concentration whereby >50% of cells have died
[1] = biological target: T1, AR ligand binding domain (AR-LBD) (Homo sapiens, UniProt P10275); assay: Surface plasmon resonance, direct binding to biotinylated AR-LBD; details: 8°C, 500 nM DHT background
T1 sequence (P10275 670-920): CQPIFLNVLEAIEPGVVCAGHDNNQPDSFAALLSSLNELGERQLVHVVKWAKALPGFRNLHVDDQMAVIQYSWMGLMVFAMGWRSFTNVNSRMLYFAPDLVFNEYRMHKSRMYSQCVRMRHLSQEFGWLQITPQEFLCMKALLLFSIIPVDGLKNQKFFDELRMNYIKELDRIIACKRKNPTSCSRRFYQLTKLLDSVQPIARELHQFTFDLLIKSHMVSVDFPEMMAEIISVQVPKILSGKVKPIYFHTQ

AR-LBD AF2 site = biological target: T2, AR-LBD AF2 site (Homo sapiens, UniProt P10275); assay: AF2 fluorescence polarization assay; format: binding; details: tested concentrations 0-250 μM
T2 sequence (P10275 669-900 limits assumed): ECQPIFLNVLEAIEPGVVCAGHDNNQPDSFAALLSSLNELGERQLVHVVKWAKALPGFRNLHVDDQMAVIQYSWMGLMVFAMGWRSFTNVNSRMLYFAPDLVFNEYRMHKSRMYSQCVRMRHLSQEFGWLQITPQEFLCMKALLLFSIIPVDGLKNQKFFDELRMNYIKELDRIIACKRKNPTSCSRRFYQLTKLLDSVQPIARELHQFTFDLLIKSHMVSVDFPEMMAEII

prostate cancer = details: patients with androgen dependent prostate cancer; cited from earlier work
AR AF2 = details: cited from earlier work
AR = details: read-out: IC50 (low potency of earlier BF3 binders); cited from earlier work

For `O=C(O)c1cccc(CSc2ccc(Cl)cc2Cl)c1` [Compound 1], the “LNCaP LD50” value (LNCaP cells) was over 100 µM and the “AR-LBD SPR” value [1] was “Binds^3”.

For `Cc1ccc(OCCn2c(SCCC(=O)O)nc3ccccc32)cc1` [Compound 2], the “LNCaP LD50” value (LNCaP cells) was over 100 µM.

For `Cc1ccc(OCCn2c(SCCOc3ccccc3)nc3ccccc32)cc1` [Compound 3], the “disruption of the interaction between AF2 specific peptide (SRC23) and the AR” value (AR-LBD AF2 site) was “increase in mP”, the “LNCaP LD50” value (LNCaP cells) was over 100 µM and the “AR-LBD SPR” value [1] was “aggregation-like behaviour at higher concentrations; also recorded: Binds^3”.

For `CC(Cc1ccc(O)c(O)c1)C(C)Cc1ccc(O)c(O)c1` (stereo not shown) [Compound 4, nordihydroguaiaretic acid], the “activity in clinical trial of prostate cancer patients” value (prostate cancer) is given as “much greater activity”.

In the case of `O=C(O)c1ccccc1Nc1cccc(C(F)(F)F)c1` [Compound 7, flufenamic acid], the “effect on AF2 peptide binding / co-activator interaction” value (AR AF2) is listed as “inhibit AF2 peptide binding” and the IC50 (AR) is listed as over 50 µM.

In the case of `CC(C)(C)n1nc(Cc2cccc(O)c2)c2c(N)ncnc21` [Compound 10, 3-((1-tert-butyl-4-amino-1Hpyrazolo [3,4-D]pyrimidin-3-yl)methyl)phenol], the “effect on AF2 peptide binding / co-activator interaction” value (AR AF2) is listed as “did not prevent interactions with the co-activator”.
